# From EP4537846A2, “ANAVEX2-73 FOR THE TREATMENT OF ALZHEIMER S DISEASE” (priority 2017, dated 2018)
# Assays:
# healthy male volunteers = assay: Randomized, placebo-controlled single ascending dose Phase 1 study; format: in vivo
# Description: See Poster: A Phase 1 Dose Escalation Study to Investigate Safety, Tolerability, and Pharmacokinetics of ANAVEX2-73 in Healthy Male Subjects, CNS Summit 2014, Boca Raton, FL, by Ole Voges, Ingo Weigmann, Norman Bitterlich, Christoph Schindler and Christopher Missling. […] Based on the frequency and intensity of […] adverse events (TEAEs) the maximum tolerable dose (MTD) and the minimum intolerable dose (MID) were defined as 55 mg and 60 mg, respectively.
# [1] = system: mild-to-moderate Alzheimer's disease patients; assay: Phase 2a clinical trial: safety profile; format: in vivo; conditions: during Phase 2a trials
# Description: (§1) The 36-day multicenter randomized clinical trial included both male and female mild-to-moderate Alzheimer's disease patients. ANAVEX2-73 was administered to twelve subjects as an add-on therapy to the donepezil current standard of care. ANAVEX2-73 was administered according to a two-period on-off-on cross-over dosing regimen in which the subjects were administered ANAVEX2-73 for 12 days (1st period) followed by a 12-day wash-out period before being administered ANAVEX2-73 for a second 12-day period (2nd period). Those subjects that were administered ANAVEX2-73 by oral administration during the 1st period were administered ANAVEX2-73 intravenously during the 2nd period, and vice versa. About half of the subjects were administered a 30 mg oral dosage form while the other half of subjects were administered a 50 mg oral dosage form. The intravenous dosage was either 3 mg or 5 mg, with about half of the subjects administered 3 mg and the other half administered 5 mg.
# (§2) 5-9, were achieved without any dose optimization. […] An additional 20 subjects will be studied during the remainder of the Phase 2a clinical trial. Phase 2b clinical trials, involving an additional 26-week extension of daily oral dosage administration of ANAVEX2-73 is on-going.
# [2] = system: muscarinic acetylcholine receptors; conditions: 'is believed to bind'; cited from earlier work
# amyloid toxicity in mice = conditions: cited from earlier work
# [3] = system: mild-to-moderate Alzheimer's disease patients; assay: Phase 2a clinical trial: EEG peak alpha frequency (PAF); format: in vivo; conditions: twelve patients, day 36 vs baseline
# Description: as §1, with “The intravenous dosage was either 3 mg or 5 mg, with about half of the subjects administered 3 mg and the other half administered 5 mg.” left out
# Resting electroencephalographic (EEG) activity and event related potentials (EEG/ERP) were used to assess the cognitive effects of ANAVEX2-73 administration. Event related potentials (ERPs) are voltage changes time-locked to some physical or mental occurrence in ongoing electrical brain activity, as recorded by EEG. […]
# Subjects were tested using a three-stimulus oddball paradigm. […] Electroencephalographic (EEG) activity was recorded from seven electrode sites (Fz, Cz, Pz, F3, P3, F4, and P4) of the international 10-20 system using a COGNISION™ Headset (Neuronetrix). […]
# sigma-1 = sigma-1 (Homo sapiens, UniProt Q99720); conditions: sigma-1 receptor; 'is believed to bind'; cited from earlier work
# [4] = system: patients with Alzheimer's disease or presenting with the early signs of Alzheimer's disease; assay: Single-patient treatment examples with intermittent dosing regimen; format: in vivo; conditions: person
# Text: The following examples show uses of ANAVEX2-73 in the treatment of patients with Alzheimer's disease or presenting with the early signs of Alzheimer's disease. The clinical determination that a patient may have Alzheimer's disease or is presenting with early signs of Alzheimer's disease is well known in the art. By way of example, the following references (and all publications cited herein) are incorporated by reference herein in their entireties: Dementia: From Diagnosis to Management - A Functional Approach 1st Edition, Psychology Press (February 17, 2009); Clinician's Guide to Psychological Assessment and Testing: With Forms and Templates for Effective Practice 1st Edition, Springer Publishing Company (September 18, 2012); Neurodegener. Dis. Manag. 5(3), 191-201 (2015); Artif. Intell. Med. 64(1), 59-74 (2015); Clin. Chem. 60(12), 1585-1586 (2014); and Metabolism 64(3 Suppl 1), S47-50 (2014).
# [5] = system: mild-to-moderate Alzheimer's disease patients; assay: Phase 2a clinical trial: MMSE and Cogstate scales; format: in vivo; conditions: preliminary; twelve subjects, on-off-on regimen
# Description: as §1, §2
# [6] = system: mild-to-moderate Alzheimer's disease patients; assay: Phase 2a clinical trial: event related potentials (ERP), auditory P300, three-stimulus oddball paradigm; format: in vivo
# Description: as §1
# Resting electroencephalographic (EEG) activity and event related potentials (EEG/ERP) were used to assess the cognitive effects of ANAVEX2-73 administration. Event related potentials (ERPs) are voltage changes time-locked to some physical or mental occurrence in ongoing electrical brain activity, as recorded by EEG. Event-related potentials (ERPs) provide a sensitive and reliable measure of the cognitive effects associated with early Alzheimer's disease. […] See for example, New Encycl. Neurosci., Oxford Academic Press, p. 13-18 (2009). For example, ERP tests on young presymptomatic individuals who carry mutations in the presenilin-1 and amyloid precursor protein genes show significant changes in ERP patterns years before the onset of behavioral symptoms and the development of Alzheimer's disease. See for example, Neurology 73, 1649-1655 (2009); Neurology 77, 469-475 (2011). […] For instance, ERP markers of cognitive function are increasingly altered in longitudinal studies on individuals with mild cognitive impairment (MCI) and Alzheimer's disease patients. See for example, Clin. Neurophysiol. 122, 1322-1326 (2011); Clin. Neurophysiol. 121, 194-199 (2010). […] See for example, Neurol. Neurochir. Pol. 35 Suppl 3, 37-43 (2001); Clin. Neuropharmacol. 25, 207-215 (2002); Neurosci. Biomed. Eng. 1, 34-39 (2013).
# In particular, the auditory P300 component of the ERP has been widely applied in the study of age-related cognitive dysfunction because it is thought to reflect attentional and memory processes. Auditory P300 is a positive deflection occurring at about 300 ms from stimulus onset. It is generated by the activation of multiple neocortical and limbic regions. Auditory P300 has two functionally different components, an earlier P3a component that is maximal over frontocentral regions, and a later P3b component (hereafter "P300") that is maximal at the posterior scalp locations. See for example, Int. J. of Alzheimer's Dis. 2011, Article ID 653173, 1-7 (2011). P300 amplitude data collected as part of a double blind six month study for 15 patients with mild Alzheimer's disease on donepezil, as compared to a vitamin E baseline, has shown that P300 amplitude data correlates with ADAS-Cog and MMSE data for the same patients. See, Clin. Neuropharmacol. 25(4), 207-215 (2002).
# Subjects were tested using a three-stimulus oddball paradigm. Stimuli comprised of standard tones (1000 Hz), target tones (2000 Hz) and unexpected distractor tones (white noise) that were played with probabilities of 0.75, 0.15, and 0.10. Tones were presented in pseudorandom order, so that target and distractor tones were never presented sequentially. Subjects were instructed to respond to the target stimuli by pressing a button with their dominant hand. For each test, between 300 and 400 stimuli were presented binaurally through insert ear phones at 70 dB volume. The tone duration for each stimulus was 100 ms with rise and fall times of 10 ms. The interstimulus interval was randomized between 1.5 and 2 s. […]
# [7] = single ascending oral doses, healthy subjects
# Sequence of sigma-1 (Q99720 whole entry): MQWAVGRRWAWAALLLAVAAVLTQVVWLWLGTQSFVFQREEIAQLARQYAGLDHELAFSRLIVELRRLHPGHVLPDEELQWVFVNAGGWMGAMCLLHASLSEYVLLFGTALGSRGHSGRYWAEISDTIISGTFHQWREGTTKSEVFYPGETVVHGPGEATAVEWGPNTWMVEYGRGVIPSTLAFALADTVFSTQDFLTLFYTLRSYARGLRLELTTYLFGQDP
compound,measurement,setting,value
"CN(C)CC1CCOC1(c1ccccc1)c1ccccc1.Cl (stereo not drawn) [ANAVEX2-73, tetrahydro-N,N-dimethyl-2,2-diphenyl-3-furanmethanamine hydrochloride]",safety and tolerability,"healthy male volunteers; ascending single oral doses of 1 mg, 10 mg, 30 mg, 40 mg, 50 mg, and 55 mg, healthy subjects",safe and well tolerated
same,observed adverse events,healthy male volunteers; at highest doses,moderate and reversible dizziness and headache
same,minimum intolerable dose (MID),"healthy male volunteers; male, human, in vivo, po",60 mg
same,Blood pressure and resting heart rate and other clinical parameters such as vital signs and 12-lead electrocardiogram (ECG),healthy male volunteers; [7],did not show any clinically relevant or dose-dependent changes
same,QT interval and QTcB,healthy male volunteers; [7],did not reveal any clinically significant changes
same,pharmacokinetics,healthy male volunteers; [7],suitable for daily oral dosing
same,serious adverse events,healthy male volunteers; [7],No serious adverse events occurred
same,maximum tolerable dose (MTD),"healthy male volunteers; single oral dose, healthy male volunteers",55 mg
same,safety profile,[1],consistent with the Phase 1 data
same,affinities,[2],low micromolar range
same,Aβ25-35-induced P-Akt decrease and P-GSK-3β increase,amyloid toxicity in mice; Aβ25-35 model,blocked
same,Aβ25-35-induced endogenous Aβ1-42 seeding,amyloid toxicity in mice; Aβ25-35 model,decrease
same,hyperphosphorylation of Tau on physiological epitopes (AT-8 antibody clone) and on pathological epitopes (AT-100 clone),"amyloid toxicity in mice; Aβ25-35 model, in the dose-range tested",attenuated
same,"oxidative stress, caspases induction, cellular loss and learning and memory deficits",amyloid toxicity in mice; mice one week after i.c.v. injection of oligomeric Aβ25-35,attenuating
same,peak alpha frequency (PAF),[3],higher than the baseline measurement of PAF
same,affinities,sigma-1,low micromolar range
same,loss of cognitive function,"[4]; 3 mg intravenously, 5 days on / 20 days off, one year",stabilizes
same,loss of cognitive function,"[4]; 5 mg intravenously, 14 days on / 7 days off, one year",stabilizes
same,loss of cognitive function,"[4]; 30 mg oral, 10 days on / 10 days off, 6 months",stabilizes
same,loss of cognitive function,"[4]; 50 mg oral, 10 days on / 20 days off",stabilizes
same,loss of cognitive function,"[4]; 50 mg oral, 14 days on / 7 days off, 6 months",stabilized
same,Mini Mental State Examination (MMSE) and Cogstate scale changes,[5],consistent with the observed trend of the cognitive EEG/ERP effect
same,patients with improved P300 signal,[6]; 10 out of the 12 patients studied,83%
same,Percentage Increase Over Baseline Data,"[6]; P300 amplitude, Day 36 vs baseline, twelve patients, hydrochloride",38%
same,percent P300 amplitude change compared to historical data for patients administered donepezil,[6]; after 1 month vs donepezil after 6 months,greater
same,P300 amplitude change compared to historical data for patients administered donepezil,[6]; day 36 (1 month) vs donepezil at the 1 month time point,about four times higher
same,False Alarms,"[6]; target detection task, Day 36, twelve patients (baseline 2.67 ± 1.12)",0.64 ± 0.26%
same,Button Press Accuracy,"[6]; target detection task, Day 36, twelve patients (baseline 86.2 ± 4.47)",87.5 ± 4.01%
same,Median Reaction Time,"[6]; target detection task, Day 36, twelve patients (baseline 593 ± 33.0)",534 ± 42.0 ms
same,P300 ERP wave data,"[6]; twelve patients, day 36 vs baseline, on-off-on regimen (30 or 50 mg oral, 3 or 5 mg i.v.), add-on to donepezil",improved measured cognitive performance as compared to the baseline data
